Laboratory results taken from the supplement of paper PMC10307832.

Key:
Assay in all cases: relative viability (nuclei count vs DMSO), 5 days (fraction); higher = more cells survive
Idelalisib + Bortezomib = compound: CC[C@H](Nc1ncnc2[nH]cnc12)c1nc2cccc(F)c2c(=O)n1-c1ccccc1 [Idelalisib] + CC(C)C[C@H](NC(=O)[C@H](Cc1ccccc1)NC(=O)c1cnccn1)B(O)O [Bortezomib] (partner 0.002 µM)
Procedure, shortened: (§1)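 One day after seeding in 1536-well plates, lung cancer cell lines were dosed by pin tool. Dosing was either single-drug or a fixed anchor-drug dose plus five library-drug doses (not always all listed) in √10 steps. After 5 days, nuclei were stained in one fix-and-stain step and counted on 4× images, and relative viability is the nuclei count of treated wells over that of vehicle wells, given as the median of duplicate plates.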

Idelalisib + Foretinib = compound: CC[C@H](Nc1ncnc2[nH]cnc12)c1nc2cccc(F)c2c(=O)n1-c1ccccc1 [Idelalisib] + COc1cc2c(Oc3ccc(NC(=O)C4(C(=O)Nc5ccc(F)cc5)CC4)cc3F)ccnc2cc1OCCCN1CCOCC1 [Foretinib] (partner 0.25 µM)
Procedure, shortened: as §1

Pemetrexed + Bortezomib = compound: Nc1nc2[nH]cc(CCc3ccc(C(=O)N[C@@H](CCC(=O)O)C(=O)O)cc3)c2c(=O)[nH]1 [Pemetrexed] + CC(C)C[C@H](NC(=O)[C@H](Cc1ccccc1)NC(=O)c1cnccn1)B(O)O [Bortezomib] (partner 0.002 µM)
Procedure, shortened: as §1

Pemetrexed + Crizotinib = compound: Nc1nc2[nH]cc(CCc3ccc(C(=O)N[C@@H](CCC(=O)O)C(=O)O)cc3)c2c(=O)[nH]1 [Pemetrexed] + C[C@@H](Oc1cc(-c2cnn(C3CCNCC3)c2)cnc1N)c1c(Cl)ccc(F)c1Cl [Crizotinib] (partner 1 µM)
Procedure, shortened: as §1

Cell Line	relative viability (Idelalisib + Bortezomib; first compound 0.04 µM)	relative viability (Idelalisib + Bortezomib; first compound 0.1265 µM)	relative viability (Idelalisib + Bortezomib; first compound 1.265 µM)	relative viability (Idelalisib + Bortezomib; first compound 4 µM)	relative viability (Idelalisib + Foretinib; first compound 0.04 µM)	relative viability (Idelalisib + Foretinib; first compound 0.1265 µM)	relative viability (Idelalisib + Foretinib; first compound 0.4 µM)	relative viability (Idelalisib + Foretinib; first compound 1.265 µM)	relative viability (Idelalisib + Foretinib; first compound 4 µM)	relative viability (Pemetrexed + Bortezomib; first compound 0.002 µM)	relative viability (Pemetrexed + Bortezomib; first compound 0.006325 µM)	relative viability (Pemetrexed + Bortezomib; first compound 0.02 µM)	relative viability (Pemetrexed + Bortezomib; first compound 0.06325 µM)	relative viability (Pemetrexed + Bortezomib; first compound 0.2 µM)	relative viability (Pemetrexed + Crizotinib; first compound 0.002 µM)	relative viability (Pemetrexed + Crizotinib; first compound 0.006325 µM)	relative viability (Pemetrexed + Crizotinib; first compound 0.02 µM)	relative viability (Pemetrexed + Crizotinib; first compound 0.06325 µM)	relative viability (Pemetrexed + Crizotinib; first compound 0.2 µM)	relative viability (Idelalisib + Bortezomib; first compound 0.4 µM)
HOP-62	0.72	0.796	0.797	0.997	1.15	1.05	1.15	1.15	1.1	0.741	0.862	0.617	0.722	0.668	0.836	0.779	0.499	0.791	0.933	–
LC-2-ad	1.02	0.971	1.11	0.992	0.978	0.857	0.733	0.943	0.85	0.981	1.01	1.02	0.215	0.148	0.425	0.473	0.457	0.263	0.29	0.938
SW 900	–	–	–	–	0.796	1.14	0.869	0.766	0.563	–	–	–	–	–	–	–	–	–	–	–
NCI-H322M	1.13	1.34	1.16	1.29	1.22	1.1	0.792	0.841	0.908	1.32	1.06	1.22	1.29	1.19	0.886	0.884	1.05	0.912	0.778	1.08
SK-LU-1	1.06	1.14	0.95	1.04	0.816	0.765	0.811	0.693	0.766	0.949	1.21	1.3	1.08	1.31	0.771	0.883	0.858	0.953	0.731	0.961
NCI-H1734	0.813	1.07	0.922	0.725	0.911	0.911	0.836	0.957	0.642	0.911	1.01	0.929	0.944	0.705	0.721	0.647	0.745	0.723	0.686	0.828
HCC-44	0.825	0.946	0.984	0.825	–	–	–	–	–	0.859	0.934	1.03	0.888	0.681	0.758	0.775	0.84	0.847	0.574	0.908
NCI-H1703	0.305	0.404	0.332	0.161	0.344	0.356	0.311	0.399	0.303	0.277	0.224	0.605	0.248	0.271	0.687	0.566	0.763	0.628	0.739	0.246
NCI-H2170	–	–	–	–	0.952	1.05	0.947	1.03	0.947	–	–	–	–	–	1.3	1.03	1.1	1.2	1.09	–
NCI-H1395	–	–	–	–	1.02	0.959	0.976	0.963	0.707	–	–	–	–	–	–	–	–	–	–	–
NCI-H1355	1.26	1.29	1.23	1.17	0.992	0.946	0.907	0.868	0.823	0.952	1.33	1.21	1.21	1.15	0.933	0.964	1.13	1.06	1.07	0.987
NCI-H1650	0.208	0.19	0.208	0.202	1.33	1.42	0.944	0.864	0.917	0.208	0.208	0.204	0.22	0.2	0.971	0.902	0.939	0.689	0.332	0.239
IA-LM	0.987	0.847	0.88	0.889	1.17	1.41	1.24	1.31	1.19	0.81	0.82	0.943	0.695	0.641	0.807	0.665	0.772	0.804	0.634	0.956
NCI-H1666	1.02	0.866	0.849	0.779	0.825	1.07	0.961	1.01	0.947	0.682	0.752	0.875	0.766	0.421	1.08	0.9	0.986	0.865	0.635	0.742
HCC-78	0.365	0.423	0.46	0.266	0.612	0.594	0.462	0.528	0.434	0.369	0.436	0.46	0.294	0.322	–	0.304	0.337	0.25	0.197	–
H3255	0.882	0.888	0.807	0.829	0.641	0.569	0.853	0.939	0.921	–	0.834	0.933	0.692	0.572	–	0.952	0.926	0.864	0.608	0.807
NCI-H23	1.05	0.986	1.07	0.959	1.2	1.1	0.766	–	0.859	0.865	0.924	1.02	1.06	0.725	0.507	0.467	0.589	0.438	0.425	0.771
NCI-H1944	–	–	–	–	1	0.877	0.752	0.804	0.759	–	–	–	–	–	0.911	1.02	1.19	1.11	1	–
NCI-H1651	1	0.913	1.01	1.02	0.761	0.799	0.702	0.735	0.561	0.992	0.919	0.945	0.892	0.911	0.879	0.792	0.92	0.864	0.851	0.939
EBC-1	0.646	0.603	0.505	0.444	0.0986	0.0952	0.0971	0.107	0.0962	0.57	0.5	0.642	0.54	0.542	0.175	0.174	0.209	0.165	0.183	0.587

Cell Line	relative viability (Idelalisib + Bortezomib; first compound 0.04 µM)	relative viability (Idelalisib + Bortezomib; first compound 0.1265 µM)	relative viability (Idelalisib + Bortezomib; first compound 1.265 µM)	relative viability (Idelalisib + Bortezomib; first compound 4 µM)	relative viability (Idelalisib + Foretinib; first compound 0.04 µM)	relative viability (Idelalisib + Foretinib; first compound 0.1265 µM)	relative viability (Idelalisib + Foretinib; first compound 0.4 µM)	relative viability (Idelalisib + Foretinib; first compound 1.265 µM)	relative viability (Idelalisib + Foretinib; first compound 4 µM)	relative viability (Pemetrexed + Bortezomib; first compound 0.002 µM)	relative viability (Pemetrexed + Bortezomib; first compound 0.006325 µM)	relative viability (Pemetrexed + Bortezomib; first compound 0.02 µM)	relative viability (Pemetrexed + Bortezomib; first compound 0.06325 µM)	relative viability (Pemetrexed + Bortezomib; first compound 0.2 µM)	relative viability (Pemetrexed + Crizotinib; first compound 0.002 µM)	relative viability (Pemetrexed + Crizotinib; first compound 0.006325 µM)	relative viability (Pemetrexed + Crizotinib; first compound 0.02 µM)	relative viability (Pemetrexed + Crizotinib; first compound 0.06325 µM)	relative viability (Pemetrexed + Crizotinib; first compound 0.2 µM)	relative viability (Idelalisib + Bortezomib; first compound 0.4 µM)
COR-L 105	0.906	0.92	1.02	0.713	1.01	1.34	0.992	1.01	0.672	0.842	0.704	1.05	0.924	0.783	0.78	0.75	0.895	0.88	0.75	0.53
RERF-LC-KJ	1.2	1.08	1.13	0.878	0.879	0.953	0.809	0.871	0.768	1.13	1.06	1.13	1.04	0.82	0.89	0.852	0.878	0.832	0.805	0.95
NCI-H1793	–	–	–	–	0.764	0.54	0.381	0.685	0.409	–	–	–	–	–	–	–	–	–	–	–
CAL-12T	1.08	1.12	1.24	0.936	1.27	1.13	1.09	1.16	1.39	0.812	0.935	1.16	0.9	0.939	0.647	0.67	0.971	0.65	0.643	0.856
NCI-H1993	1.14	1.22	0.976	0.771	0.967	0.843	0.649	0.837	0.737	1.04	1.08	1.22	0.99	0.695	0.877	0.878	0.894	0.879	0.982	0.852
LXF-289	1.08	0.925	1.05	1.04	0.946	0.979	0.928	1.14	0.951	0.987	0.993	1.08	0.976	0.943	0.808	0.832	0.841	0.843	0.79	0.995
NCI-H1792	0.552	0.952	0.968	0.843	–	–	–	–	–	0.931	0.969	0.966	0.943	0.927	0.993	0.972	0.987	0.974	0.937	0.844
LU99A	1.29	1.13	1.33	1.11	0.939	0.847	0.775	0.79	0.775	1.05	1.09	1.17	0.952	0.948	0.543	0.621	0.62	0.594	0.325	1.1
SW 1573	1.06	0.972	0.928	0.865	1.05	1.07	0.786	0.986	0.971	1.1	0.881	1.11	0.896	1.04	0.658	0.79	0.919	0.888	0.791	1.02
COR-L23	0.874	1.01	1.22	0.956	1.12	1.02	0.982	1.08	0.898	0.795	0.939	0.995	0.376	0.179	0.589	0.631	0.636	0.26	0.14	0.947
NCI-H1755	0.931	0.939	1.05	0.85	0.951	0.915	0.889	0.843	0.9	0.819	0.952	1.04	1.01	0.867	0.787	0.814	0.897	0.973	0.78	0.937
LOU-NH91	0.483	0.39	0.437	0.472	1.03	0.912	0.888	0.803	0.864	0.515	0.558	0.52	0.467	0.472	0.701	0.747	0.988	0.636	0.504	0.512
A549	–	–	–	–	1.18	1.03	0.917	1	1.01	–	–	–	–	–	0.672	0.653	0.971	0.761	0.78	–
EMC-BAC-2	1.12	1.15	1.13	1.04	0.972	0.988	0.963	0.868	0.963	0.993	0.922	1.11	1.06	1.04	0.76	0.639	0.831	0.803	0.741	1.05
NCI-H2342	–	–	–	–	1.02	1.11	0.886	0.896	0.729	–	–	–	–	–	–	–	–	–	–	–
SK-MES-1	–	–	–	–	0.904	0.768	0.55	0.768	0.544	–	–	–	–	–	1.06	0.938	0.99	1.01	0.832	–
NCI-H1623	–	–	–	–	0.849	0.8	0.754	0.706	0.846	–	–	–	–	–	–	–	–	–	–	–
LK-2	–	–	–	–	1.75	1.16	–	1.29	0.836	–	–	–	–	–	–	0.252	0.221	0.249	0.247	–
NCI-H358	–	–	–	–	0.782	0.701	0.554	0.652	0.734	–	–	–	–	–	0.555	0.524	0.558	0.287	0.179	–
